Reference: the NIST ThermoML archive (doi:10.1016/j.jct.2016.06.023)

Test: mn = molality of the nth substance listed, in mol/kg
Conditions: 101.3 kPa, Liquid, Vibrating tube method

O=C(O)CC(=O)O [propanedioic acid] + O
mass density [kg/m3]
Conditions | 278.15 K | 283.15 K | 288.15 K | 293.15 K | 298.15 K | 303.15 K | 308.15 K
m1 = 0.01001 | 1000.48 | 1000.21 | 999.61 | 998.7 | 997.52 | 996.14 | 994.51
m1 = 0.02001 | 1000.91 | 1000.62 | 1000.03 | 999.1 | 997.93 | 996.53 | 994.89
m1 = 0.03 | 1001.31 | 1001 | 1000.4 | 999.47 | 998.3 | 996.9 | 995.23
m1 = 0.03962 | 1001.73 | 1001.4 | 1000.79 | 999.85 | 998.66 | 997.28 | 995.6
m1 = 0.04998 | 1002.16 | 1001.83 | 1001.21 | 1000.27 | 999.07 | 997.66 | 996
m1 = 0.05936 | 1002.53 | 1002.19 | 1001.57 | 1000.61 | 999.4 | 997.99 | 996.33
m1 = 0.06926 | 1002.93 | 1002.58 | 1001.95 | 1000.99 | 999.78 | 998.37 | 996.69
m1 = 0.07949 | 1003.34 | 1002.98 | 1002.34 | 1001.37 | 1000.15 | 998.72 | 997.06
m1 = 0.08906 | 1003.73 | 1003.36 | 1002.71 | 1001.73 | 1000.52 | 999.08 | 997.4
m1 = 0.09935 | 1004.11 | 1003.73 | 1003.07 | 1002.12 | 1000.89 | 999.45 | 997.74
m1 = 0.1984 | 1008.06 | 1007.6 | 1006.87 | 1005.8 | 1004.55 | 1003.05 | 1001.28
m1 = 0.2977 | 1011.96 | 1011.4 | 1010.6 | 1009.46 | 1008.15 | 1006.6 | 1004.77
m1 = 0.404 | 1016 | 1015.36 | 1014.47 | 1013.26 | 1011.88 | 1010.27 | 1008.39
m1 = 0.5055 | 1019.85 | 1019.12 | 1018.15 | 1016.89 | 1015.45 | 1013.79 | 1011.84
m1 = 0.6055 | 1023.51 | 1022.71 | 1021.67 | 1020.35 | 1018.85 | 1017.14 | 1015.15
m1 = 0.6936 | 1026.73 | 1025.86 | 1024.77 | 1023.39 | 1021.85 | 1020.08 | 1018.07
m1 = 0.7926 | 1030.29 | 1029.35 | 1028.19 | 1026.76 | 1025.16 | 1023.35 | 1021.29
m1 = 0.891 | 1033.82 | 1032.8 | 1031.58 | 1030.1 | 1028.44 | 1026.58 | 1024.47
m1 = 0.9895 | 1037.16 | 1036.1 | 1034.82 | 1033.27 | 1031.58 | 1029.66 | 1027.51
